# Experimental data reported in patent publication EP1369114A1, “Use of tryptophan metabolites as pharmaceutical agents” (Terness, Peter, Priv. Doz. Dr., priority 2002, dated 2003).
# pIC50: −log10 of the molar value.
# Test system: T cells stimulated by allogeneic DCs
# Experiment: Allogeneic T-cell response: lymphocyte proliferation induced by allogeneic dendritic cells, 3[H]-thymidin incorporation
# Assay type: cell-based, human
# Conditions: 6 days
# Excerpt: DCs were generated from CD14-positive blood monocytes as previously described ("Schuler G. and N. Romani", 1997, Adv. Exp. Med. Biol. 417:7-13). Briefly, peripheral blood mononuclear cells of an HLA-typed healthy donor were separated by density gradient centrifugation and CD14-positive monocytes were isolated by adherence to culture dishes. Non-adherent cells were discarded. After culture of monocytes in the presence of human rGM-CSF (666 Units/ml) and rIL-4 (1000 Units/ml) for 7 days, rTNF-α (10 ng/ml) was added for an additional 2 days to induce maturation of DC. Characterization of DC phenotype was performed by flow cytometry using the following mouse monoclonal antibodies: anti-CD 14-FITC, anti-HLA-DR-FITC, anti-CD 1a-PE, anti-CD86-PE, and anti-CD83-PE (BD Biosciences Heidelberg, Germany). DCs were kept in liquid nitrogen until use.
# • (a) Allogeneic T-cell response. DCs were infected with recombinant IDO-adeno-GFP (DC-IDO-GFP), IDO-adeno (DC-IDO) or with control adenoviruses (DC-adeno) at a MOI (multiplicity of infection) up to 500 for 2 days. […] After 5 days, ^3[H]-thymidin was added for 12hrs and the number of counts (counts per minute = cpm) determined in a (3-counter (Inotech Biosystems, Lansing, MI). In order to verify whether IDO expression or adenovirus infection harm the DCs, 10^5 cells were infected with IDO-adeno-GFP, IDO-adenovirus, or adenovirus only at a stepwise decreasing MOI (500, 250, 125, ........ 3.9) and cell viability was measured in FACS following double staining with 7-AAD and anti-CD83 antibody-PE. The percentage of dead cells never exceeded 30% for any MOI following IDO-adeno-GFP- or IDO-adeno-infection and 40% following adenovirus(control)-infection. […] After 2 days, cell proliferation was assessed by measuring ^3[H]-thymidin incorporation (cpm) as described. • (c) Tryptophan metabolite titration curves. […] After 2 days, ^3[H] thymidin was added and the number of counts recorded. […] After another 2 days, ^3[H] thymidin was added and cpm determined. […]
structure (smiles),measurement,setting,value
Nc1ccccc1C(=O)CC(N)C(=O)O (centres unmarked) [kynurenine],inhibition of proliferation of T cells stimulated by allogeneic DCs (in words),,completely inhibit the proliferation of T cells
same,pIC50,"Homo sapiens, T-cell, 144 h, 3[H]-thymidin incorporation, read-out: 50% inhibition (I50) of proliferation of T cells stimulated by allogeneic DCs",3.80
